Test results: US9120785B2, “Pyridyl aminopyridines as Syk inhibitors” (Merck Sharp & Dohme Corp., priority 2011, dated 2015)
Where two headings read alike, the source gives them in different places.

Target: recombinant human GST-Syk (Homo sapiens (Human), UniProt P43405)
Experiment: Homogeneous Time-Resolved Fluorescence (HTRF) assay for the recombinant human Syk enzyme
Format: biochemical
Conditions: recombinant human GST-Syk 5 pM, ATP 25 μM
Protocol: Homogeneous Time-Resolved Fluorescence (HTRF) Assay for the Recombinant Human Syk Enzyme:
A recombinant GST-hSyk fusion protein was used to measure potency of compounds to inhibit human Syk activity. The recombinant human GST-Syk ([…] #08-176) (5 pM final concentration) was incubated with various concentrations of the inhibitor diluted in DMSO (0.1% final concentration) for 10 minutes at room temperature in 15 mM Tris-HCl (pH 7.5), 0.01% tween 20, 2 mM DTT in 384 well plate format. To initiate the reaction the biotinylated substrate peptide (250 nM final concentration) that contains the phosphorylation site for Syk was added with magnesium (5 mM final concentration) and ATP (25 μM final concentration). Final volume of the reaction was 10 μL. Phosphorylation of the peptide was allowed to proceed for 45 minutes at room temperature. To quench the reaction and detect the phosphorylated product, 2 nM of a Europium-anti-phosphotyrosine antibody (Perkin Elmer #AD0161) and 70 nM SA-APC (Perkin-Elmer #CR130-100) were added together in 15 mM Tris pH 7.5, 40 mM EDTA, 0.01% tween 20. Final volume of the quenching solution was 10 μL. The resulting HTRF signal was measured after 30 minutes on an EnVision (Perkin-Elmer) reader using a time-resolved fluorescence protocol.

[1] = class symbols, read-out: rhSyk activity (IC50)
[2] = 10-dose titration, read-out: rhSyk (nM) IC50

| Compound | IC50 [1] [nM] | IC50 [2] [nM] |
| --- | --- | --- |
| CCCCOC(=O)[C@H]1CC[C@H]([C@@](C)(O)c2ncc(-c3cc(C)cc(Nc4cc(C)c(F)cn4)n3)s2)CC1 (single isomer, unassigned) [Example 9, Enantiomer 2, butyl trans-4-[1-(5-{6-[(5-fluoro-4-methylpyridine-2-yl)amino]-4-methylpyridine-2-yl}-1,3-thiazol-2-yl)-1-hydroxyethyl]cyclohexanecarboxylate] | 100 to 1000 | – |
| CCC(O)(c1ncc(-c2cc(C)cc(Nc3cc(C4CC4)ccn3)n2)s1)[C@H]1CC[C@H](C(N)=O)CC1 (single isomer, unassigned) [Example 2, Enantiomer 1, trans-4-[1-(5-{6-[(4-cyclopropylpyridin-2-yl)amino]-4-methylpyridin-2-yl}-1,3-thiazol-2-yl)-1-hydroxypropyl]cyclohexanecarboxamide] | ≤ 100 | – |
| Cc1cc(Nc2cc(C(F)(F)F)ccn2)nc(-c2cnc(C(C)(O)C3CCC(C(=O)O)C(C)C3)s2)c1 (single isomer, unassigned) [Example 15-3, 4-{1-hydroxy-1-[5-(4-methyl-6-{[4-(trifluoromethyl)pyridin-2-yl]amino}pyridin-2-yl)-1,3-thiazol-2-yl]ethyl}-2-methylcyclohexanecarboxylic acid] | ≤ 100 | – |
| Cc1cc(Nc2cc(C(F)(F)F)ccn2)nc(-c2cnc(C(C)(O)[C@H]3CC[C@H](C(=O)O)C(C)(C)C3)s2)c1 (stereo partly drawn) [Example 14-32, (1S,4S)-4-{1-hydroxy-1-[5-(4-methyl-6-{[4-(trifluoromethyl)pyridin-2-yl]amino}pyridin-2-yl)-1,3-thiazol-2-yl]ethyl}-2,2-dimethylcyclohexanecarboxylic acid] | ≤ 100 | – |
| COC(=O)[C@H]1CC[C@H](C(O)c2ncc(-c3cc(C)cc(Nc4cc(C(F)(F)F)ccn4)n3)s2)CC1 (relative stereo) [Example 14-27, methyl trans-4-{hydroxy[5-(4-methyl-6-{[4-(trifluoromethyl)pyridin-2-yl]amino}pyridin-2-yl)-1,3-thiazol-2-yl]methyl}cyclohexanecarboxylate] | ≤ 100 | – |
| Cc1cc(Nc2cc(OC(C)C)ccn2)nc(-c2cnc(C(O)(C3CC3)[C@H]3CC[C@H](C(=O)O)CC3)s2)c1 (single isomer, unassigned) [Example 14-24, trans-4-{cyclopropyl(hydroxy)[5-(4-methyl-6-{[4-(propan-2-yloxy)pyridin-2-yl]amino}pyridin-2-yl)-1,3-thiazol-2-yl]methyl}cyclohexanecarboxylic acid] | ≤ 100 | – |
| Cc1cc(Nc2cc(OC(C)C)ccn2)nc(-c2cnc(C(O)([C@H]3CC[C@H](C(=O)O)CC3)C(F)(F)F)s2)c1 (single isomer, unassigned) [Example 14-25, trans-4-{2,2,2-trifluoro-1-hydroxy-1-[5-(4-methyl-6-{[4-(propan-2-yloxy)pyridin-2-yl]amino}pyridin-2-yl)-1,3-thiazol-2-yl]ethyl}cyclohexanecarboxylic acid] | ≤ 100 | – |
| butyl trans-4-[1-hydroxy-1-(5-{6-[(4-methoxypyridin-2-yl)amino]-4-methylpyridin-2-yl}-1,3-thiazol-2-yl)ethyl]cyclohexanecarboxylate [Example 14-2] | 100 to 1000 | 219 |
| Cc1ccnc(Nc2cccc(-c3cnc(C(C)(O)[C@H]4CC[C@H](C(=O)O)CC4)s3)n2)c1 (single isomer, unassigned) [Example 14-39, trans-4-[1-hydroxy-1-(5-{6-[(4-methylpyridin-2-yl)amino]pyridin-2-yl}-1,3-thiazol-2-yl)ethyl]cyclohexanecarboxylic acid] | ≤ 100 | – |
| Cc1cc(Nc2cc(C(F)(F)F)ccn2)nc(-c2cnc(C(O)[C@H]3CC[C@H](C(=O)O)CC3)s2)c1 (single isomer, unassigned) [Example 14-28, trans-4-{hydroxy[5-(4-methyl-6-{[4-(trifluoromethyl)pyridin-2-yl]amino}pyridin-2-yl)-1,3-thiazol-2-yl]methyl}cyclohexanecarboxylic acid] | ≤ 100 | 1.1 |
| Cc1cc(Nc2cc(C(F)(F)F)ccn2)nc(-c2cnc(C(O)(C3CC3)[C@H]3CC[C@H](C(=O)O)CC3)s2)c1 (single isomer, unassigned) [Example 14-18, trans-4-{cyclopropyl(hydroxy)[5-(4-methyl-6-{[4-(trifluoromethyl)pyridin-2-yl]amino}pyridin-2-yl)-1,3-thiazol-2-yl]methyl}cyclohexanecarboxylic acid] | ≤ 100 | – |

The next lines start with results.

| IC50 [1] [nM] | Compound | IC50 [2] [nM] |
| --- | --- | --- |
| ≤ 100 | CCC(O)(c1ncc(-c2cc(C)cc(Nc3cc(OC(C)C)ccn3)n2)s1)[C@H]1CC[C@H](C(=O)O)CC1 (single isomer, unassigned) [Example 14-21, trans-4-{1-hydroxy-1-[5-(4-methyl-6-{[4-(propan-2-yloxy)pyridin-2-yl]amino}pyridin-2-yl)-1,3-thiazol-2-yl]propyl}cyclohexanecarboxylic acid] | – |
| ≤ 100 | COc1ccnc(Nc2cccc(-c3cnc(C(C)(O)[C@H]4CC[C@H](C(=O)O)CC4)s3)n2)c1 (relative stereo) [Example 14-41, trans-4-[1-hydroxy-1-(5-{6-[(4-methoxypyridin-2-yl)amino]pyridin-2-yl}-1,3-thiazol-2-yl)ethyl]cyclohexanecarboxylic acid] | – |
| ≤ 100 | Cc1cc(Nc2cccc(-c3cnc(C(C)(O)[C@H]4CC[C@H](C(=O)O)CC4)s3)n2)ncc1F (single isomer, unassigned) [Example 5, trans-4-[(1R or 1S)-1-(5-{6-[(5-Fluoro-4-methylpyridin-2-yl)amino]pyridin-2-yl}-1,3-thiazol-2-yl)-1-hydroxyethyl]cyclohexanecarboxylic acid] | – |
| ≤ 100 | Cc1cc(Nc2cc(C(F)(F)F)ccn2)nc(-c2cnc(C(C)(O)C3CCC(C(=O)O)C(C)C3)s2)c1 (single isomer, unassigned) [Example 15-8, 4-{1-hydroxy-1-[5-(4-methyl-6-{[4-(trifluoromethyl)pyridin-2-yl]amino}pyridin-2-yl)-1,3-thiazol-2-yl]ethyl}-2-methylcyclohexanecarboxylic acid] | – |
| ≤ 100 | COc1ccnc(Nc2cc(C)cc(-c3cnc(C(C)(O)[C@H]4CC[C@H](C(=O)O)C(C)(C)C4)s3)n2)c1 (stereo partly drawn) [Example 14-35, (1S,4S)-4-[1-hydroxy-1-(5-{6-[(4-methoxypyridin-2-yl)amino]-4-methylpyridin-2-yl}-1,3-thiazol-2-yl)ethyl]-2,2-dimethylcyclohexanecarboxylic acid] | – |
| ≤ 100 | Cc1cc(Nc2cc(C(F)(F)F)ccn2)nc(-c2cnc(C(C)(O)C3CCNC3)s2)c1 (stereo not shown) [Example 12, 1-[5-(4-Methyl-6-{[4-(trifluoromethyl)pyridin-2-yl]amino}pyridin-2-yl)-1,3-thiazol-2-yl]-1-(pyrrolidin-3-yl)ethanol] | – |
| ≤ 100 | CC(O)(c1ncc(-c2cccc(Nc3cc(C(F)(F)F)ccn3)n2)s1)[C@H]1CC[C@H](C(=O)O)CC1 (single isomer, unassigned) [Example 8, trans-4-{(1R or 1S)-1-Hydroxy-1-[5-(6-{[4-(trifluoromethyl)pyridin-2-yl]amino}pyridin-2-yl)-1,3-thiazol-2-yl]ethyl}cyclohexanecarboxylic acid] | – |
| ≤ 100 | CC(O)(c1ncc(-c2cc(C(F)F)cc(Nc3cc(C(F)(F)F)ccn3)n2)s1)[C@H]1CC[C@H](C(=O)O)CC1 (single isomer, unassigned) [Example 14-53, trans-4-{1-[5-(4-(difluoromethyl)-6-{[4-(trifluoromethyl)pyridin-2-yl]amino}pyridin-2-yl]-1,3-thiazol-2-yl}-1-hydroxyethyl)cyclohexanecarboxylic acid] | – |
| ≤ 100 | CC(O)(c1ncc(-c2cc(Cl)cc(Nc3cc(C(F)(F)F)ccn3)n2)s1)[C@H]1CC[C@H](C(=O)O)CC1 (single isomer, unassigned) [Example 14-52, trans-4-{1-[5-(4-chloro-6-{[4-(trifluoromethyl)pyridin-2-yl]amino}pyridin-2-yl)-1,3-thiazol-2-yl]-1-hydroxyethyl}cyclohexanecarboxylic acid] | – |
| ≤ 100 | CC(O)(c1ncc(-c2cccc(Nc3cc(C(F)F)ccn3)n2)s1)[C@H]1CC[C@H](C(=O)O)CC1 (relative stereo) [Example 14-42, trans-4-{1-[5-(6-{[4-(difluoromethyl)pyridin-2-yl]amino}pyridin-2-yl)-1,3-thiazol-2-yl]-1-hydroxyethyl}cyclohexanecarboxylic acid] | – |
| ≤ 100 | CC(O)(c1ncc(-c2cccc(Nc3cc(C(F)(F)F)ccn3)n2)s1)[C@H]1CC[C@H](C(=O)O)CC1 (single isomer, unassigned) [Example 7, trans-4-{(1R or 1S)-1-hydroxy-1-[5-(6-{[4-(trifluoromethyl)pyridin-2-yl]amino}pyridin-2-yl)-1,3-thiazol-2-yl]ethyl}cyclohexanecarboxylic acid] | – |
| ≤ 100 | CC1(C)C[C@@H](C(C)(O)c2ncc(-c3cccc(Nc4cc(C(F)(F)F)ccn4)n3)s2)CC[C@@H]1C(=O)O (stereo partly drawn) [Example 14-44, (1S,4S)-4-{1-hydroxy-1-[5-(6-{[4-(trifluoromethyl)pyridin-2-yl]amino}pyridin-2-yl)-1,3-thiazol-2-yl]ethyl}-2,2-dimethylcyclohexanecarboxylic acid] | – |
